BindingDB's records for doi:10.1021/acschembio.5b00940 (University of Washington, 2016)

Target: T1, Serine/threonine-protein kinase/endoribonuclease IRE1 [547-977] (Homo sapiens, UniProt O75460)
T1 construct: 547-977
Test: In vitro RNase Assay
Text: The fluorescence intensities were normalized by setting the signal for the reaction without IRE1α* to 0.

T1 sequence (O75460 547-977): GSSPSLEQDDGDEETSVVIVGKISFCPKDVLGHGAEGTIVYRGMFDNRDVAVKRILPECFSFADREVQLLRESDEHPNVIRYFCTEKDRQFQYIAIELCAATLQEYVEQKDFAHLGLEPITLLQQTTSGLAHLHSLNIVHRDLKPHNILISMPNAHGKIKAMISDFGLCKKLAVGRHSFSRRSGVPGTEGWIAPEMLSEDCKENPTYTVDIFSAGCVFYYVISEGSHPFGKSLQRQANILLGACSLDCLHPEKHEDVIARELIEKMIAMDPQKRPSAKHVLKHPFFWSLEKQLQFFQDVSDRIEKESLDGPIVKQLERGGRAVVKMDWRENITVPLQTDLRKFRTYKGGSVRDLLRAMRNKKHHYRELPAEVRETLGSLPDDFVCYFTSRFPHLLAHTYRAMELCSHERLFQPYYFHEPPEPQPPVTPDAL

| SMILES | IC50 [nM] |
| --- | --- |
| CC(C)(C)c1nc(-c2ccc(NC(=O)Nc3cccc(C(F)(F)F)c3)c3ccccc23)c2c(N)nccn12 [KIRA analog, 2] | 120 |
| CC1(c2nc(-c3ccc(NC(=O)Nc4cccc(C(F)(F)F)c4)c4ccccc34)c3c(N)nccn23)CC1 [KIRA analog, 3] | 90 |
| Nc1nccn2c(C3CCC3)nc(-c3ccc(NC(=O)Nc4cccc(C(F)(F)F)c4)c4ccccc34)c12 [KIRA analog, 4] | 180 |
| Nc1nccn2c(C3CC3)nc(-c3ccc(NC(=O)Nc4cccc(C(F)(F)F)c4)c4ccccc34)c12 [KIRA analog, 5] | 480 |
| CC1(c2nc(-c3ccc(NC(=O)Nc4cccc(C(F)(F)F)c4)c4ccccc34)c3c(N)nccn23)COC1 [KIRA analog, 6] | 330 |
| CC1(c2nc(-c3ccc(NC(=O)Nc4cccc(C(F)(F)F)c4)cc3F)c3c(N)nccn23)CC1 [KIRA analog, 7] | 390 |
| Cc1cc(NC(=O)Nc2cccc(C(F)(F)F)c2)ccc1-c1nc(C2(C)CC2)n2ccnc(N)c12 [KIRA analog, 8] | 1500 |
| CC1(c2nc(-c3ccc(NC(=O)Nc4cccc(C(F)(F)F)c4)cc3Cl)c3c(N)nccn23)CC1 [KIRA analog, 9] | 2400 |
| Cc1c(NC(=O)Nc2cccc(C(F)(F)F)c2)ccc(-c2nc(C3(C)CC3)n3ccnc(N)c23)c1C [KIRA analog, 10] | 1200 |
| CC1(c2nc(-c3ccc(NC(=O)Nc4cccc(C(F)(F)F)c4)c(F)c3F)c3c(N)nccn23)CC1 [KIRA analog, 11] | 20000 |
| CC1(c2nc(-c3ccc(NC(=O)Nc4ccccc4)c4ccccc34)c3c(N)nccn23)CC1 [KIRA analog, 12] | 190 |
| CC1(c2nc(-c3ccc(NC(=O)Nc4cccc(F)c4)c4ccccc34)c3c(N)nccn23)CC1 [KIRA analog, 13] | 220 |
| Cc1cccc(NC(=O)Nc2ccc(-c3nc(C4(C)CC4)n4ccnc(N)c34)c3ccccc23)c1 [KIRA analog, 14] | 260 |
| COc1cccc(NC(=O)Nc2ccc(-c3nc(C4(C)CC4)n4ccnc(N)c34)c3ccccc23)c1 [KIRA analog, 15] | 310 |
| CSc1cccc(NC(=O)Nc2ccc(-c3nc(C4(C)CC4)n4ccnc(N)c34)c3ccccc23)c1 [KIRA analog, 16] | 140 |
| COc1cc(NC(=O)Nc2ccc(-c3nc(C4(C)CC4)n4ccnc(N)c34)c3ccccc23)cc(C(F)(F)F)c1 [KIRA analog, 17] | 290 |

| SMILES | IC50 [nM] |
| --- | --- |
| CC1(c2nc(-c3ccc(NC(=O)Nc4cc(F)cc(C(F)(F)F)c4)c4ccccc34)c3c(N)nccn23)CC1 [KIRA analog, 18] | 610 |
| CNS(=O)(=O)c1cccc(NC(=O)Nc2ccc(-c3nc(C4(C)CC4)n4ccnc(N)c34)c3ccccc23)c1 [KIRA analog, 19] | 1600 |
| CN1CCN(Cc2ccc(NC(=O)Nc3ccc(-c4nc(C5(C)CC5)n5ccnc(N)c45)c4ccccc34)cc2C(F)(F)F)CC1 [KIRA analog, 20] | 190 |
| CN1CCN(Cc2ccc(NC(=O)Nc3ccc(-c4nc(C5(C)CC5)n5ccnc(N)c45)c4ccccc34)cc2)CC1 [KIRA analog, 21] | 340 |
| Cc1cc(NC(=O)Nc2ccc(-c3nc(C4(C)CC4)n4ccnc(N)c34)c3ccccc23)n[nH]1 [KIRA analog, 22] | 7100 |
| CC1(c2nc(-c3ccc(NC(=O)NCc4ccccc4)c4ccccc34)c3c(N)nccn23)CC1 [KIRA analog, 23] | 3600 |
| CC1(c2nc(-c3ccc(NC(=O)NCCc4ccccc4)c4ccccc34)c3c(N)nccn23)CC1 [KIRA analog, 24] | 4100 |
| CC1(c2nc(-c3ccc(NC(=O)NC4CCCCC4)c4ccccc34)c3c(N)nccn23)CC1 [KIRA analog, 25] | 2200 |
| CC1(c2nc(-c3ccc(NC(=O)N4CCOCC4)c4ccccc34)c3c(N)nccn23)CC1 [KIRA analog, 26] | 60000 |
| CC1(c2nc(-c3ccc(NC(=O)N4CCCCC4)c4ccccc34)c3c(N)nccn23)CC1 [KIRA analog, 27] | 60000 |
| CC1(c2nc(-c3ccc(NC(=O)NC4CC4)c4ccccc34)c3c(N)nccn23)CC1 [KIRA analog, 28] | 6300 |
| CN(C(=O)Nc1ccc(-c2nc(C3(C)CC3)n3ccnc(N)c23)c2ccccc12)c1cccc(C(F)(F)F)c1 [KIRA analog, 29] | 19000 |
| CC(C)(C)c1nc(-c2ccc(NC(=O)N3CCN(c4cccc(C(F)(F)F)c4)C3=O)c3ccccc23)c2c(N)nccn12 [KIRA analog, 30] | > 60000 |
| CC1(c2nc(-c3ccc(NC(=O)OCCc4ccccc4)c4ccccc34)c3c(N)nccn23)CC1 [KIRA analog, 31] | 60000 |
| CC1(c2nc(-c3ccc(NC(=O)OCC(=O)c4ccccc4)c4ccccc34)c3c(N)nccn23)CC1 [KIRA analog, 32] | 60000 |
